From PubChem BioAssay (NCI)
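Test compounds were applied to cells in 96-well plates for 48 hours at 5 doses. GI50: concentration for 50% inhibition of growth. Definition used: TGI = concentration required for complete inhibition of growth.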

Assays:
Test in all cases: NCI-60 cell line screen, 48 h
[1] = system: HCC-2998 colon
[2] = system: SN12C renal
[3] = system: HCT-15 colon
[4] = system: ACHN renal
[5] = system: SNB-75 CNS
[6] = system: SF-539 CNS
[7] = system: SNB-19 CNS
[8] = system: EKVX NSCLC
[9] = system: HS 578T breast
[10] = system: UACC-257 melanoma
[11] = system: BT-549 breast
[12] = system: RXF 393 renal
[13] = system: CAKI-1 renal
[14] = system: A549 NSCLC
[15] = system: NCI-H226 lung
[16] = system: SK-OV-3 ovarian
[17] = system: PC-3 prostate
[18] = system: MOLT-4 leukemia
[19] = system: SK-MEL-28 melanoma
[20] = system: MCF7 breast
[21] = system: CCRF-CEM leukemia
[22] = system: COLO 205 colon
[23] = system: NCI-H460 lung
[24] = system: TK-10 renal
[25] = system: M14 melanoma
[26] = system: A498 renal
[27] = system: IGROV1 ovarian
[28] = system: UACC-62 melanoma
[29] = system: NCI-H522 lung
[30] = system: HOP-92 NSCLC
[31] = system: OVCAR-3 ovarian
[32] = system: OVCAR-4 ovarian
[33] = system: HCT-116 colon
[34] = system: OVCAR-8 ovarian
[35] = system: HOP-62 NSCLC
[36] = system: RPMI-8226 leukemia
[37] = system: SF-268 CNS
[38] = system: SW-620 colon
[39] = system: SK-MEL-2 melanoma
[40] = system: HL-60(TB) leukemia
[41] = system: MDA-MB-231 breast
[42] = system: T-47D breast
[43] = system: MALME-3M melanoma
[44] = system: LOX IMVI melanoma
[45] = system: KM12 colon
[46] = system: NCI-H23 lung
[47] = system: DU-145 prostate
[48] = system: UO-31 renal
[49] = system: OVCAR-5 ovarian
[50] = system: SK-MEL-5 melanoma
[51] = system: U251 CNS
[52] = system: 786-0 renal
[53] = system: HT29 colon
[54] = system: SR leukemia
[55] = system: SF-295 CNS
[56] = system: MDA-MB-435
[57] = system: K-562 leukemia

`O=C1Nc2ccccc2/C1=C\c1c(-c2ccccc2)nc2ccccn12` gave a GI50 [1] of 4.56 µM, a TGI [1] of 34.8 µM and a GI50 [2] of 4.91 µM. The TGI [2] was > 100 µM, the GI50 [3] was 3.6 µM and the TGI [3] was > 100 µM. For the same molecule, the GI50 [4] was 4.45 µM, the TGI [4] was > 100 µM and the GI50 [5] was 1.85 µM. It also gave a TGI [5] of 6.1 µM, a GI50 [6] of 3.96 µM and a TGI [6] of 18.9 µM. For the same molecule, the GI50 [7] was 4.93 µM, the TGI [7] was > 100 µM and the GI50 [8] was 3.1 µM. The TGI [8] was > 100 µM, the GI50 [9] was 9.31 µM and the TGI [9] was > 100 µM. For the same molecule, the GI50 [10] was 8.96 µM, the TGI [10] was > 100 µM and the GI50 [11] was 3.97 µM. The TGI [11] was 50.9 µM, the GI50 [12] was 2.75 µM and the TGI [12] was 12.1 µM. The GI50 [13] was 2.7 µM, the TGI [13] was > 100 µM and the GI50 [14] was 3.9 µM. The TGI [14] was 60 µM, the GI50 [15] was 4.5 µM and the TGI [15] was 57.8 µM. The GI50 [16] was 1.95 µM, the TGI [16] was 4.69 µM and the GI50 [17] was 3.14 µM. For the same molecule, the TGI [17] was > 100 µM, the GI50 [18] was 4.2 µM and the TGI [18] was > 100 µM. For the same molecule, the GI50 [19] was 5.53 µM, the TGI [19] was > 100 µM and the GI50 [20] was 3.52 µM. For the same molecule, the TGI [20] was > 100 µM, the GI50 [21] was 2.57 µM and the TGI [21] was > 100 µM. The GI50 [22] was 2.21 µM, the TGI [22] was 5.58 µM and the GI50 [23] was 3.24 µM. The TGI [23] was 12.9 µM, the GI50 [24] was 5.05 µM and the TGI [24] was 37.1 µM. For the same molecule, the GI50 [25] was 2.48 µM, the TGI [25] was 7.8 µM and the GI50 [26] was 5.87 µM. The TGI [26] was > 100 µM, the GI50 [27] was 2.59 µM and the TGI [27] was 20.2 µM. For the same molecule, the GI50 [28] was 3.88 µM, the TGI [28] was > 100 µM and the GI50 [29] was 1.83 µM. The TGI [29] was 7.65 µM, the GI50 [30] was 3.98 µM and the TGI [30] was 50.4 µM. For the same molecule, the GI50 [31] was 4.26 µM, the TGI [31] was > 100 µM and the GI50 [32] was 6.21 µM. The TGI [32] was > 100 µM, the GI50 [33] was 3.61 µM and the TGI [33] was 47 µM. The GI50 [34] was 4.9 µM, the TGI [34] was > 100 µM and the GI50 [35] was 2.7 µM. The TGI [35] was 15.5 µM, the GI50 [36] was 2.67 µM and the TGI [36] was 8.56 µM. The GI50 [37] was 5.23 µM, the TGI [37] was > 100 µM and the GI50 [38] was 3.02 µM. For the same molecule, the TGI [38] was > 100 µM, the GI50 [39] was 2.35 µM and the TGI [39] was 6.97 µM. For the same molecule, the GI50 [40] was 2.59 µM, the TGI [40] was 6.47 µM and the GI50 [41] was 7.29 µM. The TGI [41] was > 100 µM, the GI50 [42] was 4.4 µM and the TGI [42] was > 100 µM. For the same molecule, the GI50 [43] was 3.88 µM, the TGI [43] was > 100 µM and the GI50 [44] was 4.34 µM. The TGI [44] was > 100 µM, the GI50 [45] was 2.55 µM and the TGI [45] was > 100 µM. The GI50 [46] was 3.77 µM, the TGI [46] was > 100 µM and the GI50 [47] was 4.46 µM. The TGI [47] was > 100 µM, the GI50 [48] was 1.95 µM and the TGI [48] was > 100 µM. For the same molecule, the GI50 [49] was 4.39 µM, the TGI [49] was > 100 µM and the GI50 [50] was 2.83 µM. For the same molecule, the TGI [50] was > 100 µM, the GI50 [51] was 3.97 µM and the TGI [51] was 21 µM. For the same molecule, the GI50 [52] was 5.98 µM, the TGI [52] was 81.5 µM and the GI50 [53] was 3.05 µM. The TGI [53] was 13.9 µM, the GI50 [54] was 0.498 µM and the TGI [54] was > 100 µM.

In the case of `CC1=C(C(=O)Nc2ccc(F)c(Cl)c2)C(c2cccc(Cl)c2)NC(=S)N1` (stereo not drawn), the GI50 [2] is reported as 0.00746 µM, the TGI [2] is reported as 2.51 µM and the GI50 [3] is reported as 10.2 µM. For the same molecule, the TGI [3] was > 50 µM, the GI50 [4] was 3.61 µM and the TGI [4] was 14.4 µM. The GI50 [5] was 6.36 µM, the TGI [5] was 21 µM and the GI50 [6] was > 50 µM. For the same molecule, the TGI [6] was > 50 µM, the GI50 [7] was 26.7 µM and the TGI [7] was > 50 µM. It also gave a GI50 [8] of 14.6 µM, a TGI [8] of 38.6 µM and a GI50 [9] of 26.4 µM. The TGI [9] was > 50 µM, the GI50 [10] was 10.1 µM and the TGI [10] was 23.5 µM. It also gave a GI50 [11] of 10.4 µM, a TGI [11] of 28.1 µM and a GI50 [12] of 1.1 µM. For the same molecule, the TGI [12] was 3.24 µM, the GI50 [13] was > 50 µM and the TGI [13] was > 50 µM. It also gave a GI50 [14] of 12.7 µM, a TGI [14] of 41.9 µM and a GI50 [16] of 5.26 µM. For the same molecule, the TGI [16] was 26.6 µM, the GI50 [17] was 16.1 µM and the TGI [17] was > 50 µM. For the same molecule, the GI50 [18] was 45.1 µM, the TGI [18] was > 50 µM and the GI50 [19] was 10.2 µM. For the same molecule, the TGI [19] was 28 µM, the GI50 [20] was 47.6 µM and the TGI [20] was > 50 µM. The GI50 [21] was 36.7 µM, the TGI [21] was > 50 µM and the GI50 [22] was 4.22 µM. For the same molecule, the TGI [22] was > 50 µM, the GI50 [23] was 23.9 µM and the TGI [23] was > 50 µM. The GI50 [24] was 9.01 µM, the TGI [24] was 45.5 µM and the GI50 [25] was 9.02 µM. The TGI [25] was 23.4 µM, the GI50 [26] was 7.3 µM and the TGI [26] was 15.7 µM. The GI50 [27] was 10.3 µM, the TGI [27] was 39.2 µM and the GI50 [28] was 3.93 µM. It also gave a TGI [28] of 12.5 µM, a GI50 [29] of 2.13 µM and a TGI [29] of 17.3 µM. For the same molecule, the GI50 [30] was 32.1 µM, the TGI [30] was > 50 µM and the GI50 [31] was 13.9 µM. It also gave a TGI [31] of 33.6 µM, a GI50 [33] of 2.3 µM and a TGI [33] of 11.3 µM. For the same molecule, the GI50 [34] was 17.1 µM, the TGI [34] was > 50 µM and the GI50 [35] was 7.83 µM. The TGI [35] was 18.9 µM, the GI50 [36] was 15.3 µM and the TGI [36] was > 50 µM. The GI50 [37] was 10.1 µM, the TGI [37] was 25.9 µM and the GI50 [38] was > 50 µM. The TGI [38] was > 50 µM, the GI50 [55] was 6.28 µM and the TGI [55] was > 50 µM. It also gave a GI50 [39] of 8.4 µM, a TGI [39] of 20.5 µM and a GI50 [56] of 11.1 µM. The TGI [56] was 32.4 µM, the GI50 [40] was 16.3 µM and the TGI [40] was > 50 µM. It also gave a GI50 [41] of 7.36 µM, a TGI [41] of 17.4 µM and a GI50 [57] of 13.6 µM. The TGI [57] was 28.8 µM, the GI50 [42] was 42.5 µM and the TGI [42] was > 50 µM. For the same molecule, the GI50 [44] was 1.44 µM, the TGI [44] was 6.76 µM and the GI50 [45] was 1.34 µM. The TGI [45] was 12.6 µM, the GI50 [47] was 17.3 µM and the TGI [47] was > 50 µM. It also gave a GI50 [48] of 3.67 µM, a TGI [48] of 14.6 µM and a GI50 [50] of 10 µM. The TGI [50] was 20.2 µM, the GI50 [51] was 6.84 µM and the TGI [51] was 18.8 µM. For the same molecule, the GI50 [52] was 1.85 µM, the TGI [52] was 8.4 µM and the GI50 [54] was 15.4 µM. For the same molecule, the TGI [54] was 47.8 µM.
